Measured values from patent US10906863B1, “Hydroxytyrosol 4-methoxycinnamic acid ester with antibacterial activity and a method of preparing the same” (SHAANXI UNIVERSITY OF SCIENCE AND TECHNOLOGY, priority 2020, dated 2021).
≈ marks a conversion by molar mass, not a printed value.

Columns and labels:
Assay type in all cases: cell-based
[1] = system: methicillin-resistant Staphylococcus aureus MRSA 18-222; assay: MIC by microbroth dilution, MRSA 18-222; settings: for Minimum Bacteriostatic Concentration: strain MRSA 18-222, microbroth dilution, 37° C., 20-22 hours
Text: (§1) The minimal inhibitory concentration (MIC) of the compound as determined by a microbroth dilution method with gentamicin, cefazolin sodium and ceftriaxone sodium as positive control.
(§2) The experimental strains included methicillin-resistant Gram-positive bacteria: methicillin-resistant Staphylococcus aureus MRSA 18-222, 18-575; multiple drug-resistant […] bacteria: vancomycin-resistant enterococci VRE 18-80,18-94, multidrug-resistant Pseudomonas aeruginosa MDR-PA 18-1774,18-202, carbapenem-resistant Acinetobacter baumannii CR-AB 18-183,18-560. All the experimental strains were donated by Huashan Hospital affiliated to Fudan University (Institute of antibiotics, Fudan University) and used after routine identification.
(§3) Preparation of MHB medium: 20.0 g MHB medium was added to 1 L distilled water, boiled until completely dissolved, packed in conical bottles and sterilized at 121° C. for 15 min.
(§4) The experimental strain was cultured to the logarithmic growth phase: under aseptic condition, the experimental strain was inoculated into 100 mL MHB medium and incubated in a constant temperature and humidity incubator at 37° C. for 20-22 hours.
(§5) Preparation of storage solution: weigh the sample to be tested, dissolve it with 1% DMSO solution, prepare a storage solution with a concentration of 2560 μg/mL, weigh a positive reference substance, dissolve it with aseptic distilled water, and configure a storage solution with a concentration of 2560 μg/mL.
(§6) Under aseptic condition, the experimental strains cultured to logarithmic growth phase were adjusted to 0.5 MCF turbidity standard with MHB medium and […], and the bacterial suspension with concentration of 10^6 CFU/mL was prepared for standby.
(§7) Dilution of storage solution and inoculation of experimental strain: under aseptic condition, the storage solution was diluted to 256 μg/mL solution. Take a sterile 96-well plate, add 200 μL MHB medium to the 12th well, and add 100 μL MHB medium to each well. Add 100 μL of positive control solution to the first well, mix well, and suck 100 μL from it and discard. Add 100 μL of the compound sample solution to the second well, mix well, and then pipette 100 μL to the third well. After mixing, pipette 100 μL to the fourth well, and dilute to the 11th well in this way. Finally, 100 μL was pipetted from the 11th well and discarded. The 12th hole was the growth control without drugs. So far, the concentration of the positive reference substance is 128 μg/mL, the concentrations of the sample solution are 128, 64, 16, 8, 4, 2, 1, 0.5, 0.25 μg/mL respectively. Then, 10 μL of the prepared bacterial suspension is added to each well, so that the final concentration of the bacterial liquid in each well is 5×10^5 CFU/mL.
(§8) Incubation: Cover the 96-well plate inoculated with the experimental strains, and incubate in a constant temperature and humidity box at 37° C. for 20-22 hours.
(§9) In FIGS. 1-10, the twelve wells represent twelve groups, from left to right, positive, 128 μg/mL, 64 μg/mL, 32 μg/mL, 16 μg/mL, 8 μg/mL, 4 μg/mL, 2 μg/mL, 1 μg/mL, 0.25 μg/mL, 0.0625 μg/mL, Negative.

[2] = system: methicillin-resistant Staphylococcus aureus MRSA 18-575; assay: MIC by microbroth dilution, MRSA 18-575; settings: strain MRSA 18-575, 37° C., 20-22 hours
Text: as §1, §2, §3, §4, §5, §6, §7, §8, §9

[3] = system: vancomycin-resistant enterococci VRE 18-80; assay: MIC by microbroth dilution, VRE 18-80; settings: strain VRE 18-80, 37° C., 20-22 hours
Text: as §1, §2, §3, §4, §5, §6, §7, §8

[4] = system: vancomycin-resistant enterococci VRE 18-94; assay: MIC by microbroth dilution, VRE 18-94; settings: strain VRE 18-94, 37° C., 20-22 hours
Text: as §1, §2, §3, §4, §5, §6, §7, §8

[5] = system: multidrug-resistant Pseudomonas aeruginosa MDR-PA 18-174; assay: MIC by microbroth dilution, MDR-PA 18-174; settings: for Minimum Bacteriostatic Concentration: strain MDR-PA 18-174, microbroth dilution, 37° C., 20-22 hours
Text: as §1, §2, §3, §4, §5, §6, §7, §8, §9

[6] = system: multidrug-resistant Pseudomonas aeruginosa MDR-PA 18-202; assay: MIC by microbroth dilution, MDR-PA 18-202; settings: strain MDR-PA 18-202, 37° C., 20-22 hours
Text: as §1, §2, §3, §4, §5, §6, §7, §8

[7] = system: carbapenem-resistant Acinetobacter baumannii CR-AB 18-183; assay: MIC by microbroth dilution, CR-AB 18-183; settings: strain CR-AB 18-183, 37° C., 20-22 hours
Text: as §1, §2, §3, §4, §5, §6, §7, §8

[8] = system: carbapenem-resistant Acinetobacter baumannii CR-AB 18-560; assay: MIC by microbroth dilution, CR-AB 18-560; settings: strain CR-AB 18-560, 37° C., 20-22 hours
Text: as §1, §2, §3, §4, §5, §6, §7, §8

drug-resistant bacteria = assay: Antibacterial activity test, whole panel of drug-resistant strains; settings: summary over the tested drug-resistant strains
Text: as §1, §2, §3, §4, §5, §6
Dilution of storage solution and inoculation of experimental strain: under aseptic condition, the storage solution was diluted to 256 μg/mL solution. Take a sterile 96-well plate, add 200 μL MHB medium to the 12th well, and add 100 μL MHB medium to each well. Add 100 μL of positive control solution to the first well, mix well, and suck 100 μL from it and discard. […]

Compound	Minimum Bacteriostatic Concentration [1]	Minimum Bacteriostatic Concentration [2]	Minimum Bacteriostatic Concentration [3]	Minimum Bacteriostatic Concentration [4]	Minimum Bacteriostatic Concentration [5]	Minimum Bacteriostatic Concentration [6]	Minimum Bacteriostatic Concentration [7]	Minimum Bacteriostatic Concentration [8]	inhibitory effect on drug-resistant bacteria (result in words) (drug-resistant bacteria)	MIC ([1]; Staphylococcus aureus, drug-resistant MRSA, strain not named in the text (value matches 18-222))	MIC ([5]; Pseudomonas aeruginosa, MDR-PA, strain not named in the text (value matches 18-174))
COc1ccc(C=CC(=O)O)cc1 [4-methoxycinnamic acid]	>128 µg/mL	>128 µg/mL	>128 µg/mL	>128 µg/mL	>128 µg/mL	>128 µg/mL	>128 µg/mL	>128 µg/mL	no inhibitory effect		
COc1ccc(/C=C/C(=O)OCCc2ccc(O)c(O)c2)cc1 [(E)-3,4-dihydroxyphenethyl 3-(4-methoxyphenyl)acrylate]	4 µg/mL	32 µg/mL	>128 µg/mL	>128 µg/mL	8 µg/mL	>128 µg/mL	>128 µg/mL	>128 µg/mL	excellent antibacterial activity	4 µg/mL (≈ 12.7 µM)	8 µg/mL (≈ 25.5 µM)
Cc1nnc(SCC2=C(C(=O)O)N3C(=O)[C@@H](NC(=O)Cn4cnnn4)[C@H]3SC2)s1 [Cefazolin sodium, cefazolin sodium]	>128 µg/mL	>128 µg/mL	32 µg/mL	>128 µg/mL	8 µg/mL	128 µg/mL	>128 µg/mL	>128 µg/mL			
CO/N=C(\C(=O)N[C@@H]1C(=O)N2C(C(=O)O)=C(CSc3nc(=O)c(=O)[nH]n3C)CS[C@H]12)c1csc(N)n1 [Ceftriaxone sodium, ceftriaxone sodium]	>128 µg/mL	>128 µg/mL	8 µg/mL	>128 µg/mL	128 µg/mL	16 µg/mL	>128 µg/mL	>128 µg/mL			
OCCc1ccc(O)c(O)c1 [Hydroxytyrosol]	>128 µg/mL	>128 µg/mL	>128 µg/mL	>128 µg/mL	>128 µg/mL	>128 µg/mL	>128 µg/mL	>128 µg/mL	no inhibitory effect		
gentamicin	128 µg/mL	2 µg/mL	0.0625 µg/mL	>128 µg/mL	0.0625 µg/mL	0.0625 µg/mL	>128 µg/mL	>128 µg/mL			
